ChEMBL document CHEMBL1143316, “Japonicones A-D, bioactive dimeric sesquiterpenes from Inula japonica Thunb” (Bioorg Med Chem Lett, 2009)
Converted amounts (≈) assume the structure as drawn.

Experiments:
Format in all cases: functional, cell-based
LoVo = test: Cytotoxicity against human LoVo cells by MTT assay
A549 = test: Cytotoxicity against human A549 cells by MTT assay
CCRF-CEM = test: Cytotoxicity against human CEM cells by MTT assay
MDA-MB-435 = test: Cytotoxicity against human MDA-MB-435 cells by MTT assay

Structure (SMILES): C=C1C(=O)O[C@@H]2C[C@@H](C)[C@]34C[C@]5(C(=O)O[C@H]6C[C@@]7(C)C(=C[C@H]65)[C@H](C)CC[C@@H]7O)[C@H](C(C)=C3C[C@@H]12)[C@@H]4OC(C)=O [JAPONICONE A]
- IC50 (LoVo): 0.256 µg/mL (≈ 0.477 µM)
- IC50 (A549): 1.62 µg/mL (≈ 3.02 µM)
- IC50 (CCRF-CEM): 0.001 µg/mL (≈ 0.00186 µM)
- IC50 (MDA-MB-435): 0.198 µg/mL (≈ 0.369 µM)
